This assay deals with gene switch controlled mbIL-15 expression in CD19-specific CAR T cells. The assay is described as follows: Flow cytometry of mbIL-15 expression, veledimex ON-OFF-ON, SB gene switch CD19 CAR-T cells. In kind it is cell-based, human. The protocol: Various DNA plasmids expressing a SB transposon system, i.e. SB11, membrane bound IL-15 (mbIL-15), and chimeric antigen receptor (CAR), were transfected to peripheral blood mononuclear cells (PBMC) via nucleofection to redirect T cell specificity (FIG. 1).
On day 0, 20 million PBMC were resuspended in 100 μL of Amaxa Human T cell Nucleofector solution (Cat. no. VPA-1002; Lonza, Basel, Switzerland) mixed with a total of 15 μg of transposons and 5 μg of transposase (SB11) and electroporated.
The following day (day 1) cells were counted, and CAR expression was measured by flow cytometry. CAR T Cells were stimulated with either γ-irradiated (100 Gy) or mitomycin C treated AaPCs at a 1:1 ratio. The AaPC cells used were K562-AaPC expressing CD19 antigen. Cultures were supplemented with IL-21 (30 ng/ml) only for the first round of stimulation and subsequently with recombinant human IL-2 (50 IU/ml) and IL-21 (30 ng/ml) (Pepro Tech) for remaining stimulations. T cell cultures were phenotyped at the end of each stimulation cycle, which typically lasted 7 days. The cultures were phenotyped for CAR expression by multi-parameter flow cytometry utilizing either Protein L or anti-idiotype antibody that recognizes CD19-specific CAR. Cultures were also closely monitored for the outgrowth of NK cells (defined as CD3negCD56+ population) and were removed from the CAR T cell cultures when the percentage exceeded 10% of total cell populations using magnetic beads for specific for CD56 (Stem Cell Technologies and/or Miltenyi Biotec), according to the manufacturer's instructions.
CD19-specific T cells were generated from mononuclear cells (MNC) derived from PB or UCB using SB transposition to introduce the CAR followed by addition of AaPC to numerically expand the T cells in a CAR-dependent manner.
For flow cytometry analysis to assess expression of various markers and gene(s) of interest, cells were gently resuspended and cell number, and viability were measured using Trypan blue exclusion method with the Countess instrument. Cell diameter size was also recorded. 5×10^5 cells for each for the samples were harvested at 330×g for 4 min at 10° C. for antibody staining. Harvested cells were incubated on ice for at least 15 min with 10% human AB serum in HBSS. Antibody cocktails containing fluorescently conjugated antibodies included one or more of antibodies specific to CD4 (Clone RPA-T4), CD8 (Clone SK1), CD3 (Clone UCHT1), CD56, CD19-specific CAR (anti-idiotype antibody), IL-15, and IL-15Rα, in HBSS+0.1% BSA+2 mM EDTA. The prepared antibody cocktails and associated fluorescence minus one/isotype control were added to stain the cell samples, and then the samples were incubated on ice for 30 min. The samples were then washed then with FACS buffer (HBSS+0.5% BSA+2 mM EDTA) and stained with Fixable Viability Dye (eBiosciences) for 30 min on ice. Cells were washed with FACS buffer and then fixed with a 4% paraformaldehyde solution (BD Cytofix; BD Biosciences). All samples were run on a LSR II flow cytometer, a Fortessa X-20 flow cytometer (BD Biosciences) or iQue Screener Plus (Intellicyt) and data was analyzed using FlowJo V10 (TreeStar, Ashland, Oreg.) or iQue Screener software.
For induction of expression using ligand (veledimex), AaPC stimulated CAR-T cells were harvested at 1×10^6 cells/ml. Either veledimex or DMSO (to keep DMSO concentration constant in both cultures) was added to the cultures. Veledimex was used at a concentration of 20 nM, 50 nM, 100 nM or as described. Cells were then cultured at 37° C. in presence of veledimex or DMSO for 2-3 days. After 2-3 days in culture, 5×10^5 cells for each for the samples were harvested at 330×g for 4 min at 10° C. for antibody staining. Harvested cells were incubated on ice for at least 15 min with 10% human AB serum in HBSS. […]
In general terms: A flow cytometer gives signals particle by particle.

Regarding `CCC[C@@H](N(NC(=O)c1cccc(OC)c1CC)C(=O)c1cc(C)cc(C)c1)C(C)(C)C` [veledimex, N-[(1R)-1-(1,1-dimethylethyl)butyl]-N′-(2-ethyl-3-methoxybenzoyl)-3,5-dimethylbenzohydrazide], the “mbIL-15 expression versus veledimex concentration” value (2 day incubation at 100, 25, 6.25, 1.56, 0.4 and 0 nM, gated FSC/SSC/LIVE/CD3+) was “dose response”. Moreover, under “day 29 post nucleofection, gated on CD19-specific CAR positive populations”, the “expression of mbIL-15 post ligand addition” value is on record as “turned on”. Besides, under “day 35 post nucleofection, gated on CD19-specific CAR positive populations”, the “expression of mbIL-15 post ligand withdrawal” value was “turned off”. Also, the “expression of mbIL-15 after re-introduction of ligand” value is “maintained” (day 40 post nucleofection, gated on CD19-specific CAR positive populations); “continuously maintained” (day 48 post nucleofection, gated on CD19-specific CAR positive populations); “continuously maintained” (day 50 post nucleofection, gated on CD19-specific CAR positive populations).
